{"source": "paper PMC4549706", "about": "“Rational Design of Highly Potent and Slow-Binding Cytochrome bc1 Inhibitor as Fungicide by Computational Substitution Optimization” (Scientific Reports, 2015)", "tested_on": "S. fuliginea", "experiment": "Field trial, summer squash naturally infected, powdery mildew", "format": "in vivo, Sphaerotheca fuliginea", "description": "To further study the potential of compound 18 against powdery mildew and downy mildew, field experiments were conducted during the growing season of summer squash and cucumber. The summer squash plants at a fruiting stage naturally infected by S. fuliginea were used. […] Almost no lesions were observed on the leaves of summer squash. […] Lesions on the leaves of control plants, however, expanded quickly, and intense fungal hyphae could be observed. The curative effect is approximately 64.85% for the AZ-treated (93.75 g.ai/ha) summer squash. In addition, field trials for the treatment of downy mildew of cucumber were also performed. Cucumber plants naturally infected by P. cubensis were used for the study. Fungi on the leaves of control plants expanded quickly and lesions could be observed.\nIn the field trials, summer squash plants which is naturally infected by S. fuliginea and cucumber plants which is naturally infected by P. cubensis were used.\nThe disease index and control effect of compound 18 were calculated via the following […]\nDisease index (%) = ∑(Ni × i)/(N × 9) × 100 […]\nEach treatment took up in four plots and was distributed randomly in each […]eld. The relative control effects were assessed after the 7th day of foliar application 18. […]", "data": [{"smiles": "COC=C(C(=O)OC)c1ccccc1CSc1nc2cc(OC)ccc2s1", "note": "[Compound 18]", "values": [{"measurement": "curative effect, powdery mildew (S. fuliginea)", "setting": "37.5 g.ai/ha, 7th day", "result": "approximately 70.92%"}, {"measurement": "curative effect, powdery mildew (S. fuliginea)", "setting": "75 g.ai/ha, 7th day after foliar application", "result": 74.60, "unit": "%"}]}]}
